{
  "source": "paper PMC6781309",
  "about": "“Assessing Drug Interaction and Pharmacokinetics of Loxoprofen in Mice Treated with CYP3A Modulators” (Pharmaceutics, 2019)",
  "key": {"[1]": {"test": "Relative concentration of LOX and its metabolites in hepatic portal vein plasma 10 min post-LOX (HRMS)", "type": "in vivo, Male ICR mice", "details": "hepatic portal vein plasma 10 min after LOX 20 mg/kg oral, n = 3; for Relative concentration in plasma (DEX average % of area, VH corn oil = 100): DEX 40 mg/kg i.p. 3 days; for Relative concentration in plasma (KTC average % of area, VH 10% ethanol = 100): KTC 60 mg/kg i.p. single dose", "experimental": "(§1) The acclimatized animals were divided into eight groups, with each group containing 3 mice: groups I and II, vehicle (corn oil); groups III and IV, DEX-treated; groups V and VI, vehicle (10% Ethanol); and groups VII and VIII, KTC-treated group. […] Then, animals were fasted for 12 hours with free access to water before starting the experiment. After fasting, LOX (20 mg/kg) was administered orally to groups I, II, III, and IV.\nSimilarly, blood from groups II, IV, VI, and VIII was collected from the hepatic portal vein 10 min post-LOX administration to identify metabolites of LOX and to analyze drug–drug interactions. Plasma from these samples was prepared as explained above. Then, 300 µL of ACN having 0.1% formic acid and 5 µM of the IS were mixed with 100 µL of each plasma sample. […] Supernatants were transferred into tubes and dried using a Labconco Speed Vac (Labconco Corporation, Kansas City, MO, USA). […] Each supernatant was transferred into an LCMS vial, and 5 µL were injected into a high-resolution mass spectrometer (HRMS).\nHRMS coupled with ultrahigh performance liquid chromatography (UHPLC) was used to detect hydroxy-LOX and other metabolites of LOX. The UHPLC system, Dionex Ultimate 3000 (Dionex Softron GmbH, Germering, Germany) consisted of an HPG-3200SD Standard binary pump, a WPS 3000 TRS analytical autosampler, and a TCC-3000 SD column compartment. In this experiment, the HRMS was a Q Exactive Focus quadrupole-Orbitrap MS (Thermo Fisher Scientific, Bremen, Germany) equipped with a heated electrospray ionization (HESI-II) ion probe.\nLOX was detected as a deprotonated ion [M-H]^− at m/z 245.1175 in negative ion mode. Therefore, negative ion mode was used with the following optimized conditions for LOX: spray voltage of 2.5 kV, capillary temperature of 320 °C, auxiliary gas at 12 aux unit, aux gas heater temperature of 200 °C, sheath gas at 35 aux units, and S-lens RF level of 50. LOX and its metabolites were separated using a 150 mm × 2.1 mm, 2.6-μm reverse-phase liquid chromatography column, Kinetex® C18 column (Phenomenex, CA, USA) at 40 °C. Furthermore, MS-grade solvents were used as the mobile phase in gradient elution mode: 0.1% aqueous formic acid as Solvent A and 0.1% formic acid in ACN as Solvent B. The flow was set to 0.22 mL/min with a gradient condition of Solvent B as 10% between 0 and 0.5 min, 10–50% between 0.5 and 21.5 min, 50–95% between 21.5 and 22.5 min, 95% between 22.5 and 25.5 min, 95–10% between 25.5 and 25.6 min, and 10% between 25.6 and 30 min."}, "[2]": {"test": "Plasma pharmacokinetics of LOX, cis-LOX and trans-LOX after oral LOX in mice pretreated with DEX, KTC or vehicle", "type": "in vivo, Male ICR mice", "details": "mouse plasma, LOX 20 mg/kg oral, mean ± SE, n = 3", "experimental": "as §1, with “After fasting, LOX (20 mg/kg) was administered orally to groups I, II, III, and IV.” left out\nAfter the oral administration of LOX, blood from groups I, III, V, and VII was collected from the tail at 0, 5, 10, 15, 30, 60, 120, and 240 min post-administration and placed into sodium heparin-containing tubes. After the last blood collection, the mice were sacrificed by cervical dislocation. Plasma was then prepared by centrifuging the blood at 4000× g for 15 min at 4 °C and stored at −80 °C until analysis. For analysis, each sample was prepared by mixing plasma (10 µL) and 90 µL of ACN containing 0.1% formic acid and 5 µM of tolbutamide as an internal standard (IS). […] Finally, 10 µL of sample supernatant was injected into the LC-MS/MS system. The PK parameters (the maximum plasma concentration [Cmax], time to reach the maximum plasma concentration [Tmax], elimination half-life [T1/2], and area under the plasma concentrations [AUC]) were analyzed by WinNonlin software (Version 2.1, Scientific Consulting, Louisville, KY, USA).\nA Shimadzu Prominence UFLC system (Kyoto, Japan) connected to a TSQ vantage triple quadrupole mass spectrometer with a HESI-II spray source incorporated with a DGU-20A5 degasser, an LC-20AD pump, a SIL-20A autosampler, and a CTO-20A column oven was used for the analyses. A shim-pack GIS C18 column (150 × 3.0 mm, […]) was used to separate analytes in the samples. Mobile phases A and B were composed of water with formic acid and ACN with 0.1% formic acid, respectively, and the flow rate was 0.50 mL/min at 40 °C. The gradient conditions were as follows: 20% of B between 0 and 0.25 min, 20–80% of B between 0.25 and 9.75 min, 80–20% of B between 9.75 and 10 min, and 20% of B between 10 and 13 min. The MS was operated under the following conditions: electrospray ionization in negative mode at 3.0 kV, capillary temperature at 350 °C, vaporizer temperature at 300 °C, sheath gas pressure at 35 Arb, and auxiliary gas pressure at 10 Arb. Finally, Xcalibur software (Thermo Fisher Scientific Inc., Waltham, MA, USA) was used for data analysis."}, "CYP1A": {"test_system": "CYP1A", "details": "liver S9, phenacetin 80 µM", "procedure": "To characterize the CYP activities in the harvested livers, phenacetin O-demethylation (using 80 µM of phenacetin) for CYP1A, dextromethorphan O-demethylation (using 5 µM of dextromethorphan) for CYP2D, and midazolam 1’-hydroxylation (using 5 µM of midazolam) for CYP3A were used as cocktail probe reactions [21, 22]. The level of protein in the S9 fraction was determined by Bradford assay [23]. The cocktail probes were then incubated with 10 µL of each S9 fraction, potassium phosphate buffer (pH 7.4), and an NADPH generating system (NGS) in a final volume of 100 µL. After incubation for 30 min at 37 °C, ice-cold ACN containing 0.1% formic acid and IS (5 µM) was added to stop the reaction. Samples were then vortexed and centrifuged at 13,000× g for 10 min at 4 °C. Finally, the supernatants were transferred to LC-MS/MS vials for analysis."}, "CYP2D": {"test_system": "CYP2D", "test": "CYP activity in liver S9 of treated mice: dextromethorphan O-demethylation", "type": "in vivo, Male ICR mice", "details": "liver S9, dextromethorphan 5 µM", "experimental": "(§2) Twenty-four hours after the last treatment, the liver was excised and homogenized with three volumes of ice-cold 0.1 M potassium phosphate buffer (pH 7.4). The supernatant fraction was then separated as the S9 fraction from the mixture by centrifugation at 9000× g at 4 °C and stored at −80 °C until use.\n(§3) To characterize the CYP activities in the harvested livers, phenacetin O-demethylation (using 80 µM of phenacetin) for CYP1A, dextromethorphan O-demethylation (using 5 µM of dextromethorphan) for CYP2D, and midazolam 1’-hydroxylation (using 5 µM of midazolam) for CYP3A were used as cocktail probe reactions. The level of protein in the S9 fraction was determined by Bradford assay. The cocktail probes were then incubated with 10 µL of each S9 fraction, potassium phosphate buffer (pH 7.4), and an NADPH generating system (NGS) in a final volume of 100 µL. After incubation for 30 min at 37 °C, ice-cold ACN containing 0.1% formic acid and IS (5 µM) was added to stop the reaction. Samples were then vortexed and centrifuged at 13,000× g for 10 min at 4 °C. Finally, the supernatants were transferred to LC-MS/MS vials for analysis."}, "CYP3A": {"test_system": "CYP3A", "test": "CYP activity in liver S9 of treated mice: midazolam 1'-hydroxylation", "details": "liver S9, KTC 60 mg/kg i.p. once, midazolam 5 µM, n = 3", "experimental": "as §2, §3"}, "[3]": {"details": "pretreated DEX 40 mg/kg i.p. 3 days"}, "[4]": {"details": "pretreated KTC 60 mg/kg i.p. single dose"}, "[5]": {"details": "pretreated VH (10% ethanol) i.p. single dose"}, "[6]": {"details": "pretreated VH (corn oil) i.p. 3 days"}},
  "data": [
    {"smiles": "CC(C(=O)O)c1ccc(CC2CCCC2O)cc1", "note": "(stereo not drawn) [cis-LOX]", "values": [
      {"measurement": "Relative concentration in plasma (DEX average % of area, VH corn oil = 100)", "setting": "[1]", "value": "61.9 ± 3.9", "unit": "%"},
      {"measurement": "Relative concentration in plasma (DEX average % of area, VH corn oil = 100)", "setting": "[1]; listed as M2", "value": 61.91, "unit": "%"},
      {"measurement": "Relative concentration in plasma (KTC average % of area, VH 10% ethanol = 100)", "setting": "[1]", "value": "173.1 ± 5.8", "unit": "%"},
      {"measurement": "Relative concentration in plasma (KTC average % of area, VH 10% ethanol = 100)", "setting": "[1]; listed as M2", "value": 173.08, "unit": "%"},
      {"measurement": "AUC(0–60)", "setting": "[2]; [3]", "value": "29.9 ± 4.4", "unit": "µg·min/mL"},
      {"measurement": "AUC(0–∞)", "setting": "[2]; [3]", "value": "31.5 ± 4.4", "unit": "µg·min/mL"},
      {"measurement": "Cmax", "setting": "[2]; [3]", "value": "1100 ± 200", "unit": "ng/mL"},
      {"measurement": "T1/2 (elimination half-life)", "setting": "[2]; [3]", "value": "13.9 ± 0.6", "unit": "min"},
      {"measurement": "Tmax", "setting": "[2]; [3]", "value": "10.0 ± 1.0", "unit": "min"},
      {"measurement": "AUC(0–60)", "setting": "[2]; [4]", "value": "49.0 ± 5.9", "unit": "µg·min/mL"},
      {"measurement": "AUC(0–∞)", "setting": "[2]; [4]", "value": "51.9 ± 6.1", "unit": "µg·min/mL"},
      {"measurement": "Cmax", "setting": "[2]; [4]", "value": "1600 ± 100", "unit": "ng/mL"},
      {"measurement": "T1/2 (elimination half-life)", "setting": "[2]; [4]", "value": "13.4 ± 0.6", "unit": "min"},
      {"measurement": "Tmax", "setting": "[2]; [4]", "value": "11.6 ± 0.8", "unit": "min"},
      {"measurement": "AUC(0–60)", "setting": "[2]; [5]", "value": "36.0 ± 3.9", "unit": "µg·min/mL"},
      {"measurement": "AUC(0–∞)", "setting": "[2]; [5]", "value": "38.4 ± 4.4", "unit": "µg·min/mL"},
      {"measurement": "Cmax", "setting": "[2]; [5]", "value": "1200 ± 100", "unit": "ng/mL"},
      {"measurement": "T1/2 (elimination half-life)", "setting": "[2]; [5]", "value": "13.3 ± 0.9", "unit": "min"},
      {"measurement": "Tmax", "setting": "[2]; [5]", "value": "13.3 ± 0.8", "unit": "min"},
      {"measurement": "AUC(0–60)", "setting": "[2]; [6]", "value": "72.7 ± 12.4", "unit": "µg·min/mL"},
      {"measurement": "AUC(0–∞)", "setting": "[2]; [6]", "value": "75.8 ± 12.8", "unit": "µg·min/mL"},
      {"measurement": "Cmax", "setting": "[2]; [6]", "value": "2400 ± 300", "unit": "ng/mL"},
      {"measurement": "T1/2 (elimination half-life)", "setting": "[2]; [6]", "value": "12.3 ± 0.3", "unit": "min"},
      {"measurement": "Tmax", "setting": "[2]; [6]", "value": "10.4 ± 0.7", "unit": "min"}
    ]},
    {"smiles": "C[C@@H]1C[C@H]2[C@@H]3CCC4=CC(=O)C=C[C@]4(C)[C@@]3(F)[C@@H](O)C[C@]2(C)[C@@]1(O)C(=O)CO", "note": "[DEX, dexamethasone]", "values": [
      {"measurement": "Metabolic activity of other CYP enzymes (CYP1A, phenacetin O-demethylation), VH vs treated", "setting": "CYP1A", "value": "unaffected"},
      {"measurement": "Metabolic activity of other CYP enzymes (CYP2D, dextromethorphan O-demethylation), VH vs treated", "setting": "CYP2D", "value": "unaffected"}
    ]},
    {"smiles": "CC(=O)N1CCN(c2ccc(OCC3COC(Cn4ccnc4)(c4ccc(Cl)cc4Cl)O3)cc2)CC1", "note": "(stereo not shown) [KTC, ketoconazole]", "values": [
      {"measurement": "Effect on the metabolism of CYP3A4 substrate (midazolam) compared to the VH group", "setting": "CYP3A", "value": "significantly decreased"},
      {"measurement": "Metabolic activity of other CYP enzymes (CYP2D, dextromethorphan O-demethylation), VH vs treated", "setting": "CYP2D", "value": "unaffected"}
    ]}
  ]
}
